Where “and” joins values, the source holds several entries; their conditions need not be identical. Equal values may be shown once. Read-outs that look alike come from different tables or passages of the source.
Tests used:
[1] = In vivo pharmacokinetics study, rat; set-up: species or system SD rat
Experimental: 4–6 weeks old female BALB/c nude mice were used for most experiments, with the exception of 6–8 weeks old female C57BL/6 mice were used for B16F10 experiments, and 6–8 weeks old male BALB/c nude mice and SD rats were used for pharmacokinetic experiments. All animals were purchased from Shanghai SIPPR-Bk Lab Animal Co., Ltd. All animals were housed under a regimen of 12 h light/12 h dark cycles and specific pathogen-free conditions. 5×10^6 NCI-H526, ES-2, MDA-MB231, A2780, A375, B16F10, and TMD-8 cells (0.1 ml) were injected subcutaneously into female nude mice. The melanoma patient-derived xenograft model was derived from a human melanoma sample (BRAF, NARS and NF1 wild type, and p53 mutant) removed from a patient in Xiangya Hospital. Surgically removed tumor fragments were implanted subcutaneously into female NSG mice. When the tumors grew to ~1000 mm^3, they were harvested and cryopreserved or immediately re-implanted for expansion or experiments. Mouse body weight and tumor sizes were measured every 3 days. Once the tumors grew to 150–200 mm^3, mice were treated with the compounds as described in the Figures. 1 × 10^6 A2780 cells (1 ml) were injected into the abdominal cavity of nude mice. Ascitic volume and tumor weight were measured by an electronic balance. All the procedures were evaluated and approved by the Institutional Animal Care and Use Committee of Central South University and Yale University.
Supplementary Figure 7. Pharmacokinetic profile of NHWD-870 using mouse and rat models.
(a,b) Plasma concentrations of NHWD-870 in healthy (a) mouse and (b) rat after intravenous (IV, 1.75 mg/kg for mouse and 1 mg/kg for rat) and oral (PO, 5 mg/kg) administration. Values shown on the right panels are mean ± SEM from 3 different animals. (c,d) Mean concentrations of NHWD-870 in the lungs (c) and tumors (d) of H526 xenograft model at the indicated hours after oral administration of 3 mg/kg NHWD-870 and BMS-98615821 on day 21. These mice were administrated the indicated drug daily for 21 days. Data are represented as mean ± SEM of 3 independent experiments. Source data are provided as a Source Data file. […]
9. In vivo pharmacokinetics study. Mouse and SD rat models were used to evaluate pharmacokinetic property of NHWD-870. NHWD-870 was administrated […]
Concentration of drugs in plasma, lung and tumor tissues were measured for the indicated time. […]

[2] = Equilibrium dialysis assay, CD-1 mouse plasma
Experimental: The concentration was calculated using the peak area ratio of analyte and internal […]
The results were calculated by the following equations:
% Unbound = 100 *FC / TC, % Bound = 100 * (1-FC / TC)
% Recovery = 100 * (FC + TC) / T0
TC = Total compound concentration as determined by the calculated concentration on the retentate side of the membrane
FC = Free compound concentration as determined by the calculated concentration on the dialysate side of the membrane […]
Equation of first order kinetics: […]
8. Equilibrium dialysis assay. Binding with plasma protein and recovery rate of NHWD-870 were performed with human, CD-1 mouse and SD rat plasma as […]
described 2. […] The concentration was […]
calculated using the peak area ratio of analyte and internal standard. The results were calculated by the following equations: % Unbound = 100 *FC / TC, % Bound = 100 * (1-FC / TC); % Recovery = 100 * (FC + TC) / T0; TC = Total compound concentration as determined by the calculated concentration on the retentate side of the membrane; FC = Free compound concentration as determined by the (1 picture or pasted object on this page, not shown here) […]
calculated concentration on the dialysate side of the membrane; T0 = To t a l compound concentration as determined before dialysis. […]
10. hERG channel assay. […]
HEK293 cell line stably

[3] = male, SD, plasma, iv, 1 mg/kg, IV 1 mg/kg

Cc1nnn(C)c1-c1cnc2c3c4cnn(C)c4ccc3n([C@H](c3ccccc3)C3CCOCC3)c2c1 [NHWD-870]
AUCExtra ([1]; IV 1 mg/kg): 2.21±0.73%
AUMCExtra ([1]; IV 1 mg/kg): 11.5±3.025%
Cl ([1]; IV 1 mg/kg, 1 mg/kg): 50 mL/min/kg
T1/2 ([1]; IV 1 mg/kg, 1 mg/kg): 0.9 h
Plasma Conc. ([1]; IV bolus, 5 min, individual animals, LLOQ 1.00 ng/mL): 362 ng/mL and 355 ng/mL
Plasma Conc. ([1]; IV bolus, 0.25 h, individual animals, LLOQ 1.00 ng/mL): 274 ng/mL and 247 ng/mL
Plasma Conc. ([1]; IV bolus, 0.5 h, individual animals, LLOQ 1.00 ng/mL): 208 ng/mL and 167 ng/mL
Plasma Conc. ([1]; IV bolus, 1 h, individual animals, LLOQ 1.00 ng/mL): 98.1 ng/mL and 112 ng/mL
Plasma Conc. ([1]; IV bolus, 2 h, individual animals, LLOQ 1.00 ng/mL): 48.1 ng/mL and 40.3 ng/mL
Plasma Conc. ([1]; IV bolus, 4 h, individual animals, LLOQ 1.00 ng/mL): 8.88 ng/mL and 8.14 ng/mL
Plasma Conc. ([1]; IV bolus, 8 h, individual animals, LLOQ 1.00 ng/mL): BQL
Plasma Conc. ([1]; IV bolus, 24 h, individual animals, LLOQ 1.00 ng/mL): BQL
AUCExtra ([1]; PO 5 mg/kg): 3.97±1.15%
AUMCExtra ([1]; PO 5 mg/kg): 11.8±2.615%
Tlast ([1]; PO 5 mg/kg): 8 h
Plasma Conc. ([1]; PO, 0.25 h, individual animals, LLOQ 1.00 ng/mL): 18.8 ng/mL and 13.3 ng/mL
Plasma Conc. ([1]; PO, 0.5 h, individual animals, LLOQ 1.00 ng/mL): 58.3 ng/mL and 33.9 ng/mL
Plasma Conc. ([1]; PO, 1 h, individual animals, LLOQ 1.00 ng/mL): 117 ng/mL and 106 ng/mL and 54.6 ng/mL
Plasma Conc. ([1]; PO, 2 h, individual animals, LLOQ 1.00 ng/mL): 111 ng/mL and 73.5 ng/mL
Plasma Conc. ([1]; PO, 4 h, individual animals, LLOQ 1.00 ng/mL): 48.1 ng/mL and 45.9 ng/mL
Plasma Conc. ([1]; PO, 6 h, individual animals, LLOQ 1.00 ng/mL): 20.2 ng/mL and 15.9 ng/mL and 50.5 ng/mL
Plasma Conc. ([1]; PO, 8 h, individual animals, LLOQ 1.00 ng/mL): 6.96 ng/mL and 4.35 ng/mL and 9.56 ng/mL
Plasma Conc. ([1]; PO, 24 h, individual animals, LLOQ 1.00 ng/mL): BQL
AUC(0-inf) ([1]; male, SD, plasma, IV 1 mg/kg): 331 ± 6.45 ng·h/mL
AUC(0-t) ([1]; male, SD, plasma, IV 1 mg/kg): 323 ± 5.55 ng·h/mL
C0 ([1]; male, SD, plasma, IV 1 mg/kg): 441 ± 17.9 ng/mL
MRT inf ([1]; male, SD, plasma, IV 1 mg/kg): 1.08 ± 0.021 h
MRT last ([1]; male, SD, plasma, IV 1 mg/kg): 0.98 ± 0.045 h
Vd ([1]; male, SD, plasma, IV 1 mg/kg, read-out: Vdss): 3.27 ± 0.0925 L/kg
AUC(0-inf) ([1]; male, SD, plasma, PO 5 mg/kg): 398 ± 9.15 ng·h/mL
AUC(0-t) ([1]; male, SD, plasma, PO 5 mg/kg): 382 ± 12.6 ng·h/mL
Cmax ([1]; male, SD, plasma, PO 5 mg/kg): 101 ± 11.8 ng/mL
MRT inf ([1]; male, SD, plasma, PO 5 mg/kg): 3.28 ± 0.33 h
MRT last ([1]; male, SD, plasma, PO 5 mg/kg): 3 ± 0.256 h
Tmax ([1]; male, SD, plasma, PO 5 mg/kg): 1.67 ± 0.288 h
bioavailability ([1]; male, SD, plasma, PO 5 mg/kg, calculated using AUCinf with nominal dose): 24%
clearance [1, 3]: 50.4 ± 0.965 mL/min/kg
half-life [1, 3]: 0.92 ± 0.0805 h
concentration at 5 min ([1]; male, SD, plasma, iv, 1 mg/kg, IV bolus, 5 min, individual animals, LLOQ 1.00 ng/mL, read-out: Plasma Conc.): 392 ng/mL
concentration at 0.25 h ([1]; male, SD, plasma, iv, 1 mg/kg, IV bolus, 0.25 h, individual animals, LLOQ 1.00 ng/mL, read-out: Plasma Conc.): 259 ng/mL
concentration at 0.5 h ([1]; male, SD, plasma, iv, 1 mg/kg, IV bolus, 0.5 h, individual animals, LLOQ 1.00 ng/mL, read-out: Plasma Conc.): 168 ng/mL
concentration at 1 h ([1]; male, SD, plasma, iv, 1 mg/kg, IV bolus, 1 h, individual animals, LLOQ 1.00 ng/mL, read-out: Plasma Conc.): 96.1 ng/mL
concentration at 2 h ([1]; male, SD, plasma, iv, 1 mg/kg, IV bolus, 2 h, individual animals, LLOQ 1.00 ng/mL, read-out: Plasma Conc.): 39 ng/mL
concentration at 4 h ([1]; male, SD, plasma, iv, 1 mg/kg, IV bolus, 4 h, individual animals, LLOQ 1.00 ng/mL, read-out: Plasma Conc.): 8.15 ng/mL
concentration at 8 h ([1]; male, SD, plasma, iv, 1 mg/kg, IV bolus, 8 h, individual animals, LLOQ 1.00 ng/mL, read-out: Plasma Conc.): 1.09 ng/mL
half-life ([1]; male, SD, plasma, po, 5 mg/kg, PO 5 mg/kg): 1.48 ± 0.155 h
concentration at 0.25 h ([1]; male, SD, plasma, po, 5 mg/kg, PO, 0.25 h, individual animals, LLOQ 1.00 ng/mL, read-out: Plasma Conc.): 18.2 ng/mL
concentration at 0.5 h ([1]; male, SD, plasma, po, 5 mg/kg, PO, 0.5 h, individual animals, LLOQ 1.00 ng/mL, read-out: Plasma Conc.): 56.8 ng/mL
concentration at 2 h ([1]; male, SD, plasma, po, 5 mg/kg, PO, 2 h, individual animals, LLOQ 1.00 ng/mL, read-out: Plasma Conc.): 110 ng/mL
concentration at 4 h ([1]; male, SD, plasma, po, 5 mg/kg, PO, 4 h, individual animals, LLOQ 1.00 ng/mL, read-out: Plasma Conc.): 45.5 ng/mL
fraction unbound ([2]; CD-1, mouse, plasma): 0.026
recovery ([2]; CD-1, mouse, plasma): 95.2%
% Bound ([2]; CD-1 mouse plasma, equilibrium dialysis): 97.4%

Reference: publication PMC7156724, “Potent BRD4 inhibitor suppresses cancer cell-macrophage interaction” (Nature Communications, 2020)
